Laboratory results taken from ChEMBL document CHEMBL4425178, “A convenient synthesis and screening of benzosuberone bearing 1,2,3-triazoles against Mycobacterium tuberculosis” (2016).
≈ marks a conversion by molar mass, not a printed value.

Test system: Mycobacterium tuberculosis
Assay: Antimycobacterial activity against Mycobacterium tuberculosis H37Rv ATCC 27294 after 28 days by agar dilution assay
Format: functional
Conditions: H37Rv ATCC 27294, 672 h

| Structure (SMILES) | MIC |
| --- | --- |
| COc1cccc(-c2cn(C3CCCCc4ccccc43)nn2)c1 (stereo not drawn) | 3.12 µg/mL (≈ 9.78 µM) |
| NNC(=O)c1ccncc1 [ISONIAZID] | 0.1 µg/mL (≈ 0.729 µM) |
| CC(C)(C)c1ccc(-c2cn(C3CCCCc4ccccc43)nn2)cc1 (stereo not drawn) | 6.25 µg/mL (≈ 18.1 µM) |
| Cc1ccc(-c2cn(C3CCCCc4ccccc43)nn2)cc1 (stereo not drawn) | > 25 µg/mL |
| CCCCCc1ccc(-c2cn(C3CCCCc4ccccc43)nn2)cc1 (stereo not drawn) | > 25 µg/mL |
| CCCCCCc1cn(C2CCCCc3ccccc32)nn1 (stereo not drawn) | 6.25 µg/mL (≈ 21 µM) |
| c1cc(-c2cn(C3CCCCc4ccccc43)nn2)cc(-c2cn(C3CCCCc4ccccc43)nn2)c1 (stereo not drawn) | 6.25 µg/mL (≈ 12.5 µM) |
| c1ccc(-c2cn(C3CCCCc4ccccc43)nn2)cc1 (stereo not drawn) | > 25 µg/mL |
| CC[C@@H](CO)NCCN[C@@H](CC)CO [ETHAMBUTOL] | 3.13 µg/mL (≈ 15.3 µM) |
| FC(F)(F)Oc1ccc(-c2cn(C3CCCCc4ccccc43)nn2)cc1 (stereo not drawn) | > 25 µg/mL |
| CCCc1ccc(-c2cn(C3CCCCc4ccccc43)nn2)cc1 (stereo not drawn) | > 25 µg/mL |
| c1ccc(-c2cn(C3CCCCc4ccccc43)nn2)nc1 (stereo not drawn) | 12.5 µg/mL (≈ 43 µM) |
| COc1ccc2cc(-c3cn(C4CCCCc5ccccc54)nn3)ccc2c1 (stereo not drawn) | > 25 µg/mL |
| c1ccc2c(c1)CCCCC2n1cc(-c2ccsc2)nn1 (stereo not drawn) | > 25 µg/mL |
| CO[C@H]1/C=C/O[C@@]2(C)Oc3c(C)c(O)c4c(O)c(c(/C=N/N5CCN(C)CC5)c(O)c4c3C2=O)NC(=O)/C(C)=C\C=C\[C@H](C)[C@H](O)[C@@H](C)[C@@H](O)[C@@H](C)[C@H](OC(C)=O)[C@@H]1C [RIFAMPIN] | 0.2 µg/mL (≈ 0.243 µM) |
| c1ccc2c(c1)CCCCC2n1cc(-c2cc3ccccc3c3ccccc23)nn1 (stereo not drawn) | > 25 µg/mL |
| c1cncc(-c2cn(C3CCCCc4ccccc43)nn2)c1 (stereo not drawn) | 12.5 µg/mL (≈ 43 µM) |
| CCc1ccc(-c2cn(C3CCCCc4ccccc43)nn2)cc1 (stereo not drawn) | > 25 µg/mL |
